The experiment addresses T1, Androgen Receptor (Homo sapiens, UniProt P10275).
T1 construct: endogenous in cells; host or cells: VCaP cells
T1 sequence (P10275 1-920): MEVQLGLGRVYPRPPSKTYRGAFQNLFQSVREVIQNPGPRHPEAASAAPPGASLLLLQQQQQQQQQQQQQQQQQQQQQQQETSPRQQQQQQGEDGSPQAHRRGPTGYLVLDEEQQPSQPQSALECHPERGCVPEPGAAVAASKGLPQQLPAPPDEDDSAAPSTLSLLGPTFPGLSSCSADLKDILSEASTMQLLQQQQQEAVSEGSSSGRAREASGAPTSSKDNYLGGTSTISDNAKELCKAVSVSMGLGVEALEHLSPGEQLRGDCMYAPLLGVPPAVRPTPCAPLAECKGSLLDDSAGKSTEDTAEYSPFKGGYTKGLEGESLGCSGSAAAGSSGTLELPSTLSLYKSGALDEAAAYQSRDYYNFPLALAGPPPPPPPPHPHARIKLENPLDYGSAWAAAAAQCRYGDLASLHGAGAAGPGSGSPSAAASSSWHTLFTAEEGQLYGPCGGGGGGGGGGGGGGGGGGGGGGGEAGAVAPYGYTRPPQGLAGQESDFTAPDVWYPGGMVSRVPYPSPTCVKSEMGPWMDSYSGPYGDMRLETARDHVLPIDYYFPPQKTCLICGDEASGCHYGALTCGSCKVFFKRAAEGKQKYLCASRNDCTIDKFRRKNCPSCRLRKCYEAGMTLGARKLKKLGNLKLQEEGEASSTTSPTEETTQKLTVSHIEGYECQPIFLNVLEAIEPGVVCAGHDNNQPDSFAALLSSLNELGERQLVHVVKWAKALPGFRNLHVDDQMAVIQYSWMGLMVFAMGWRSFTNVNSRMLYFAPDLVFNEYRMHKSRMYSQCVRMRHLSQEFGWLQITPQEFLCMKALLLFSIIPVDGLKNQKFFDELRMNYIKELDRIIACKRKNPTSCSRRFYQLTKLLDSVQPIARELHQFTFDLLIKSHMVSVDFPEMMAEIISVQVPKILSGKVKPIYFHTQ
The experiment in a line: Androgen Receptor ELISA assay (PathScan AR ELISA) in VCaP cells: AR degradation, Dmax and DC50. Type of experiment: cell-based. An outline of the steps:
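VCaP cells in phenol red-free RPMI with 5% charcoal-stripped FBS were grown at least 3 days, then given compound as 7 half-log doses in 0.1% DMSO with 0.1 nM R1881 for 24 h. Lysates went into a sandwich AR ELISA with TMB read at 450 nm.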

Where [1] appears, read: VCaP cells; Table 36; read-out: VCaP DC50.
[2] abbreviates: VCaP, VCaP cells; Table 36; read-out: VCaP Dmax (%).

Like-named read-outs stand apart in the source and are kept apart here.

As to `Cc1ncsc1-c1ccc([C@H](C)NC(=O)[C@@H]2C[C@@H](O)CN2C(=O)[C@@H](NC(=O)COCCCCCNC23CC(C(=O)N[C@H]4C(C)(C)[C@H](Oc5ccc(C#N)c(Cl)c5)C4(C)C)(C2)C3)C(C)(C)C)cc1` [Example 666, (2S,4R)-1-((S)-2-(2-((5-((3-(((1r,3r)-3-(3-chloro-4-cyanophenoxy)-2,2,4,4-tetramethylcyclobutyl)carbamoyl)bicyclo[1.1.1]pentan-1-yl)amino)pentyl)oxy)acetamido)-3,3-dimethylbutanoyl)-4-hydroxy-N-((S)-1-(4-(4-methylthiazol-5-yl)phenyl)ethyl)pyrrolidine-2-carboxamide], the DC50 under setting [1] was greater than 0.501 µM. For the same compound, the Dmax under setting [2] fell in the range of 26 to 50%.

Take `Cc1ncsc1-c1ccc([C@H](C)NC(=O)[C@@H]2C[C@@H](O)CN2C(=O)[C@@H](NC(=O)CN2CCO[C@@H](CN3CCO[C@@H](COc4ccc(N5C(=S)N(c6ccc(C#N)c(C(F)(F)F)c6)C(=O)C5(C)C)cc4)C3)C2)C(C)(C)C)cc1` [Example 667, (2S,4R)-1-((S)-2-(2-((S)-2-(((R)-2-((4-(3-(4-cyano-3-(trifluoromethyl)phenyl)-5,5-dimethyl-4-oxo-2-thioxoimidazolidin-1-yl)phenoxy)methyl)mor-pholino)methyl)mor-pholino)acetamido)-3,3-dimethylbutanoyl)-4-hydroxy-N-((S)-1-(4-(4-methylthiazol-5-yl)phenyl)ethyl)pyrrolidine-2-carboxamide]: the greatest degradation seen (Dmax) (VCaP, read-out: VCaP Dmax (%)) is less than 25%. Besides, where the note is “read-out: VCaP DC50; VCaP cells; Table 36”, the DC50 was greater than 0.501 µM.

With `CC(NC(=O)C1CC(O)CN1C(=O)C(NC(=O)COCCN1CC2CC1CN2c1ccc(C(=O)NC2C(C)(C)C(Oc3ccc(C#N)c(Cl)c3)C2(C)C)cn1)C(C)(C)C)c1ccc(-c2scnc2CO)cc1` [Example 668, N-((1r,3R)-3-(3-chloro-4-cyanophenoxy)-2,2,4,4-tetramethylcyclobutyl)-6-((1R,4R)-5-(2-(2-(((S)-1-((2S,4R)-4-hydroxy-2-(((S)-1-(4-(4-(hydroxymethyl)thiazol-5-yl)phenyl)ethyl)carbam-oyl)pyrrolidin-1-yl)-3,3-dimethyl-1-oxobutan-2-yl)amino)-2-oxoethoxy)ethyl)-2,5-diazabicyclo[2.2.1]hept-an-2-yl)nicotinamide], under setting [1], the 50% degradation concentration (DC50) fell in the range of 0.051 to 0.5 µM. Besides, the greatest degradation seen (Dmax) (VCaP, read-out: VCaP Dmax (%), VCaP cells; Table 36) is 26 to 50%.

Turning to `Cc1ncsc1-c1ccc(CNC(=O)[C@@H]2C[C@@H](O)CN2C(=O)[C@@H](NC(=O)COCCN2C[C@H]3C[C@@H]2CN3c2ccc(C(=O)N[C@H]3C(C)(C)[C@H](Oc4ccc(C#N)c(Cl)c4)C3(C)C)cn2)C(C)(C)C)cc1` [Example 669, N-((1r,3R)-3-(3-chloro-4-cyanophenoxy)-2,2,4,4-tetramethylcyclobutyl)-6-((1R,4R)-5-(2-(2-(((S)-1-((2S,4R)-4-hydroxy-2-((4-(4-methylthiazol-5-yl)benzyl)carbamoyl)pyrrolidin-1-yl)-3,3-dimethyl-1-oxobutan-2-yl)amino)-2-oxoethoxy)ethyl)-2,5-diazabicyclo[2.2.1]hept-an-2-yl)nicotinamide], under setting [1], the DC50 was less than 0.05 µM. The Dmax under setting [2] lay in the range of 51 to 70%.

As for `Cc1ncsc1-c1ccc([C@H](C)NC(=O)[C@@H]2C[C@@H](O)CN2C(=O)[C@@H](NC(=O)COCCCCCNc2ccc(C(=O)N[C@H]3C(C)(C)[C@H](Oc4ccc(C#N)c(Cl)c4)C3(C)C)nc2)C(C)C)cc1` [Example 670, N-((1r,3r)-3-(3-chloro-4-cyanophenoxy)-2,2,4,4-tetramethylcyclobutyl)-5-((5-(2-(((S)-1-((2S,4R)-4-hydroxy-2-(((S)-1-(4-(4-methylthiaozl-5-yl)phenyl)ethyl)carbam-oyl)pyrrolidin-1-yl)-3-methyl-1-oxobutan-2-yl)amino)-2-oxoethoxy)pentyl)amino) picolinamide], the DC50 under setting [1] was greater than 0.501 µM. Further, the maximal degradation (Dmax) under setting [2] is less than 25%.
